Broadly, the efflux ratio is a quotient of directional permeabilities that is used to spot active efflux. The term Papp A→B denotes how fast a substance crosses the layer from the apical side. A lower Papp A→B goes with poor permeation. Broadly, the Papp B→A is the apparent permeability from the basolateral to the apical side of a cell layer.

The data set is described as follows: Membrane permeability and transport characteristics (Caco-2 Transwell). It is filed as in vitro ADME. The note with it: human, pH 7.4; for efflux ratio at 2 h, 10 μM: Caco-2, Papp (B-A)/Papp (A-B); for Papp A→B at 2 h, 10 μM: Caco-2, apical to basal; for Papp B→A at 2 h, 10 μM: Caco-2, basal to apical. On the procedure:
The membrane permeability and transport characteristics of the compounds of the present disclosure were determined by the following experimental method.
• 1. Caco-2 cells (ATCC) • 2. HEPES (Solarbio 804D049), penicillin/streptomycin (Solarbio 20200109) and PBS (Solarbio 20200620) • 3. Fetal bovine serum (FBS) (Sigma WXBD0055V), fluorescein (Sigma MKCJ3738) and NaHCO3 (Sigma SLBZ4647) • 4. Hank's balanced salt solution (HBSS) (Gibco 2085528), non-essential amino acid (NEAA) (Gibco 2211548) and Trypsin/EDTA (Gibco 2120732) • 5. High glucose DMEM (Corning 20319014) • 6. HTS Transwell-96 Well Permeable (Corning, 3391) • 7. Resistance tester (Millipore, Millicell® ERS-2) • 8. Cellometer® Vision (Nexcelom Bioscience) • 9. Infinite 200 PRO microplate reader (Tecan, Infinite M200PRO) • 10. Positive control compounds metoprolol (Sinopharm 100084-201403), erythromycin (MCE 84550) and cimetidine (Sinopharm 100158-201406) • 11. ABI QTrap 5500 liquid chromatography-mass spectrometry
• 1) Transport buffer (HBSS containing 25 mM HEPES, pH 7.4) was prepared: 5.958 g of HEPES and 0.35 g of NaHCO3 were accurately weighed, 900 mL of pure water was added to dissolve same, then 100 mL of 10×HBSS was added, uniform stirring was performed, the pH was adjust to 7.4, and filtering was performed. • 2) Caco-2 cell culture medium was prepared: FBS, penicillin/streptomycin, kanamycin and NEAA were added to high glucose DMEM (containing L-glutamine) medium to prepare a cell culture medium containing 10% FBS, 100 U/mL penicillin/0.1 mg/mL streptomycin, 0.6 μg/mL kanamycin and 1×NEAA. • 3) Cells were cultured in T-75 culture flasks in an incubator at 37° C. and 5% CO2, and the medium was discarded when the cell growth density reached 80-90%. The cells were rinsed with 5 mL of PBS, 1.5 mL of Trypsin/EDTA was added, then the cells were incubated in an incubator at 37° C. for 5-10 min until the cells fell off in the form of quicksand, and finally Trypsin/EDTA was neutralized with an FBS-containing medium. 4) The cell suspension was centrifuged at 120 g for 10 min, and the supernatant was discarded. • 5) The cell culture medium was added to re-suspend the cells to obtain a cell suspension with a density of […] cells/mL.
• 1) 50 μL of medium was added to each well of Transwell chamber, and 25 mL of medium was added to the lower layer. The Transwell chamber was preheated in an incubator at 37° C. and 5% CO2 for 1 h. • 2) 50 μL of the cell suspension was added to each well of the preheated Transwell chamber to a final seeding density of 2.4×10^5 cells/cm. • 3) The cells were cultured for 14-18 days, the medium was changed every other day, and the medium was changed within 48 h after the initial seeding in the plate. The medium must be changed one day before the experiment.
• 1) After 14 days of cell culture, the cells were fused and differentiated, ready for transport experiment. • 2) The resistance of monolayer cell membrane was measured by the resistance tester, and the resistance of each well was recorded. • 3) After the measurement was completed, the Transwell culture plate was re-incubated. • 4) The TEER value was calculated: […]

As to `CC[C@@]1(O)C(=O)OCc2c1cc1n(c2=O)Cc2c-1nc1cc3c(cc1c2CNC(=O)C(O)C1CC1)OCO3` (stereo partly drawn) [Compound 14, 2-cyclopropyl-N-(((S)-7-ethyl-7-hydroxy-8,11-dioxo-7,8,11,13-tetrahydro-10H-[1,3]dioxolo[4,5-g]pyrano[3′,4′:6,7]indolizino[1,2-b]quinolin-14-yl)methyl)-2-hydroxyacetamide], the efflux ratio at 2 h, 10 μM came to 15.2; the Papp A→B at 2 h, 10 μM came out at 0.26 ×10⁻⁶ cm/s; the Papp B→A at 2 h, 10 μM was determined as 3.95 ×10⁻⁶ cm/s.
As for `[2H]C1([2H])Oc2cc3nc4c(c(CNC(=O)C(O)C5CC5)c3cc2O1)Cn1c-4cc2c(c1=O)COC(=O)[C@]2(O)CC` (stereo partly drawn) [Compound 39, 2-cyclopropyl-N-(((S)-7-ethyl-7-hydroxy-8,11-dioxo-7,8,11,13-tetrahydro-10H-[1,3]dioxolo[4,5-g]pyrano[3′,4′:6,7]indolizino[1,2-b]quinolin-14-yl-2,2-d2)methyl)-2-hydroxyacetamide], the efflux ratio at 2 h, 10 μM is 5.9; the Papp A→B at 2 h, 10 μM is 0.71 ×10⁻⁶ cm/s; the apparent permeability from basolateral to apical (Papp B→A) at 2 h, 10 μM amounted to 4.21 ×10⁻⁶ cm/s.

The record behind these values is US20250270227A1, “CAMPTOTHECIN DERIVATIVE, AND PHARMACEUTICAL COMPOSITION AND USE THEREOF” (SIMCERE ZAIMING PHARMACEUTICAL CO., LTD., priority 2021, published 2025).
